{
  "source": "patent US12201626B2",
  "about": "“Bifunctional compositions for the treatment of cancer” (ARMACEUTICA, INC., priority 2018, dated 2025)",
  "key": {"Calf Thymus DNA": {"system": "Calf Thymus DNA", "assay": "UV-Visible spectrophotometric titration", "type": "binding", "conditions": "PND 22.8 μM, Tris/HCl buffer, CT DNA additions", "method": "UV-Visible measurements were taken in a Varian Cary 100 spectrophotometer. Calf Thymus (CT) DNA and buffers were purchased from Sigma Aldrich. The binding constant of PND with CT DNA was determined by absorption titration at room temperature through stepwise addition of a CT DNA solution (10.1 mM; 5 μL additions) in buffer (5 mM Tris/HCl, 50 mM NaCl, pH=7.39) over a 2 mL working solution of PND (22.8 μM) in the same buffer. Absorption spectra were recorded at 424 nm and the titration was terminated when saturation was reached. In order to determine the binding affinity, the data was fitted to the Scatchard equation r/Cf=K(n−r) (McGhee and von Hippel plots), where r is the number of moles of PND bound to 1 mol of CT DNA, n is the number of equivalent binding sites, and K is the affinity of the complex for those binding sites. Concentrations of free (Cf) and bound (Cb) complexes were calculated from Cf=C(1−α) and Cb=C−Cf, respectively, where C is the total PND concentration. The fraction of the bound complex (α) was calculated from α=(Af−A)/(Af−Ab), where Af and Ab are the absorbances of the free and fully bound drug at the selected wavelengths, and A is the absorbance at any given point during the titration. The plot of r/Cf vs. r gives the binding constant Kb as the slope of the graph. All experiments were performed in triplicate and values of Kb were averaged."}, "MDA-MB-231 cells [1]": {"system": "MDA-MB-231 cells", "assay": "Phosphatidylserine externalization, annexin V-FITC/PI flow cytometry", "type": "cell-based, human", "conditions": "24 h", "method": "(§1) To determine whether cell death induced by PND was occurring through apoptosis or necrosis, MDA-MB-231 and HL-60 cells were stained with annexin V-FITC and PI and monitored via flow cytometry. Cells were seeded in 24-well plates at a density of 100,000 for adherent MDA-MB-231 and 200,000 HL-60 cells in 1 ml of culture media. After overnight incubation, cells were treated with PND, and incubated for an additional 24 h. For MDA-MB-231 cells, unattached cells were harvested in an ice-cold tube, while adhered cells were detached by using HyQtase (Thermo Fisher) and incubated for around 5 min at 37° C. Both unattached and detached cells harvested from each individual well were washed with ice-cold PBS and centrifuged at 260×g for 5 min. HL-60 were centrifuged directly after the incubation period as they grow in suspension. Cells were then stained with a mixture of annexin V-FITC and PI in 100 μl of binding buffer and incubated on ice in the dark for 15 minutes, following the manufacturer's instructions (Beckman Coulter). Lastly, the cells were resuspended by the addition of 400 μl of ice-cold binding buffer and analysed by flow cytometry (Cytomics FC500; Beckman Coulter). For this series of experiments, cells treated with PBS, as solvent control; treated with H2O2, as a positive control of cytotoxicity; and untreated were included and processed in parallel. For each sample, 10,000 events/cells were collected and analysed using CXP software (Beckman Coulter). Both the experimental samples and their controls were processed similarly and assessed in triplicate. The sum of both early and late stages of apoptosis was calculated to obtain the total percentage of apoptotic cells."}, "HL-60 cells [2]": {"system": "HL-60 cells", "assay": "Phosphatidylserine externalization, annexin V-FITC/PI flow cytometry", "type": "cell-based, human", "conditions": "24 h", "method": "as §1"}, "MDA-MB-231 cells [3]": {"system": "MDA-MB-231 cells", "assay": "Mitochondrial membrane potential, JC-1 flow cytometry", "type": "cell-based, human", "conditions": "6 h; vs untreated and solvent treated cells", "method": "(§2) After treatment, the cells were harvested and stained with 2 μM of the fluorophore 5,5′,6,6′-tetrachloro-1,1′,3,3′-tetraethylbenzimidazolylcarbocyanine iodide (JC-1) following manufacturer's instructions (MitoProbe; Life Technologies, Grand Island, NY, USA). Cells with healthy polarized mitochondria favour JC-1 to form aggregates, which emit a red signal. […] Similar controls as above were concurrently analysed. Data acquisition and analysis were achieved by using CXP software (Beckman Coulter). Each data point was analysed in triplicate."}, "HL-60 cells [4]": {"system": "HL-60 cells", "assay": "Mitochondrial membrane potential, JC-1 flow cytometry", "type": "cell-based, human", "conditions": "6 h; vs untreated and solvent treated cells", "method": "as §2"}},
  "data": [
    {"smiles": "COC1=CC=C2Nc3cc(Cl)ccc3C(N=C3C=C(CN4CCCC4)C(=O)C(CN4CCCC4)=C3)=C2N1", "note": "[PND, 4-[(7-chloro-2-methoxy-1,5-dihydrobenzo[b][1,5]naphthyridin-10-yl)imino]-2,6-bis(pyrrolidin-1-ylmethyl)cyclohexa-2,5-dien-1-one]", "values": [
      {"measurement": "hypochromic effect at 424 nm", "setting": "Calf Thymus DNA", "result": 39, "unit": "%"},
      {"measurement": "red-shift of absorbance maximum at 424 nm", "setting": "Calf Thymus DNA", "result": 8, "unit": "nm"},
      {"measurement": "annexin positive cells (PS externalization)", "setting": "MDA-MB-231 cells [1]; 11 μM", "result": 67.2, "unit": "%"},
      {"measurement": "annexin positive cells (PS externalization)", "setting": "MDA-MB-231 cells [1]; 22 μM", "result": 71.1, "unit": "%"},
      {"measurement": "apoptotic cells (PS externalization)", "setting": "HL-60 cells [2]; 34 μM", "result": 14.8, "unit": "%"},
      {"measurement": "apoptotic cells (PS externalization)", "setting": "HL-60 cells [2]; 68 μM", "result": 30.2, "unit": "%"},
      {"measurement": "mitochondrial depolarization (Δψm, JC-1)", "setting": "MDA-MB-231 cells [3]", "result": "significant mitochondrial depolarization"},
      {"measurement": "mitochondrial depolarization (Δψm, JC-1)", "setting": "HL-60 cells [4]", "result": "significant mitochondrial depolarization"}
    ]}
  ]
}
